Results taken from article PMC6199744, “Development of Chemical Proteomics for the Folateome and Analysis of the Kinetoplastid Folateome” (ACS Infectious Diseases, 2018).
Read-outs that look alike come from different tables or passages of the source.

Experiments:
Assay type in all cases: binding
[1] = biological target: T1, HeLa cell extract proteins (Homo sapiens, UniProt Q9UPN7)
T1 construct: endogenous in cells; host or cells: HeLa cell extract
T1 sequence (Q9UPN7 1-881): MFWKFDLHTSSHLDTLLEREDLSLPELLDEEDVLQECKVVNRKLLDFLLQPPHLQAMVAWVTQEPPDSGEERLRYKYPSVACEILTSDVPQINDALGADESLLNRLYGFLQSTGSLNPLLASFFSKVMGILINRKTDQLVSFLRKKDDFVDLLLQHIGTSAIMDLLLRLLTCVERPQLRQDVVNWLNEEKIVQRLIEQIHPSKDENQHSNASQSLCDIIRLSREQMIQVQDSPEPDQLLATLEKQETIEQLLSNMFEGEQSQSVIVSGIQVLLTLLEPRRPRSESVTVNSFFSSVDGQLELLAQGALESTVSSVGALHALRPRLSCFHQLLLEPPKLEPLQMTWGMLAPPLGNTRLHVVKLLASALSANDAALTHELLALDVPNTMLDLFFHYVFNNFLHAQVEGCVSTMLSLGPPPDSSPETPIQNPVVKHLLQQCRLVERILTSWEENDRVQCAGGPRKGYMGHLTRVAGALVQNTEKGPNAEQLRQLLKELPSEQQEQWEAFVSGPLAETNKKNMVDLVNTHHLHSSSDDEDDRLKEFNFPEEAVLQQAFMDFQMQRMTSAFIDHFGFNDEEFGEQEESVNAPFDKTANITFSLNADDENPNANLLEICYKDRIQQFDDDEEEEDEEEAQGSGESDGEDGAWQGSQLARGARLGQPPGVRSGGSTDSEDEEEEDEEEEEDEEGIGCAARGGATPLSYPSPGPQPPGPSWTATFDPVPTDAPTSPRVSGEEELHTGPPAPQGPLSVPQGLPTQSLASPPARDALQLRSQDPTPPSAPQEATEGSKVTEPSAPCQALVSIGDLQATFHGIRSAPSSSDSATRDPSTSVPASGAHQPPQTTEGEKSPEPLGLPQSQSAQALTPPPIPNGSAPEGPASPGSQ

[2] = biological target: T2, HeLa cell extract proteins (Homo sapiens, UniProt P30837)
T2 construct: endogenous in cells; host or cells: HeLa cell extract
T2 sequence (P30837 18-517): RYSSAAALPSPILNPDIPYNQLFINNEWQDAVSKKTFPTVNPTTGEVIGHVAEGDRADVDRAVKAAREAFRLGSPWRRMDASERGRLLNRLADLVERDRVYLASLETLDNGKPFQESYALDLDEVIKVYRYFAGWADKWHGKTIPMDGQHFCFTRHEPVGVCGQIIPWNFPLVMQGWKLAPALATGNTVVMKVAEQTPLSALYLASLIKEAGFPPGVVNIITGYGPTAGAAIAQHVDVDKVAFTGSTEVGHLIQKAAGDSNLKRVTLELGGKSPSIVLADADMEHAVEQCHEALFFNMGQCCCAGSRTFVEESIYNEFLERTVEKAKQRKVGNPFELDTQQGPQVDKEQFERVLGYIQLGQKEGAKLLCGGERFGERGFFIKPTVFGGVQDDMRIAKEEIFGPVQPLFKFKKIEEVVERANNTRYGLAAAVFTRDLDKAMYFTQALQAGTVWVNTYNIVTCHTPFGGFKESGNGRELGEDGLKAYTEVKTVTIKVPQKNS

[3] = biological target: T3, HeLa cell extract proteins (Homo sapiens, UniProt Q12904)
T3 construct: endogenous in cells; host or cells: HeLa cell extract
T3 sequence (Q12904 1-312): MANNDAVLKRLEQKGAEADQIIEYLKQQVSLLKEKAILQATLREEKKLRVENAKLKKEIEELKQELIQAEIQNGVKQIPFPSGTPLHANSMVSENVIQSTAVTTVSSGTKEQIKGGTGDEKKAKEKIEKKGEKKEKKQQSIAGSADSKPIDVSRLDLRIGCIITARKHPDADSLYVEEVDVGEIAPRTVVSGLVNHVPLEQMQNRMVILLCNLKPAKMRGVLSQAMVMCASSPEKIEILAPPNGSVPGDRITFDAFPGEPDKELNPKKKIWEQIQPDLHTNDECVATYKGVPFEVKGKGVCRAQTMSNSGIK

[4] = biological target: T4, HeLa cell extract proteins (Homo sapiens, UniProt Q15393)
T4 construct: endogenous in cells; host or cells: HeLa cell extract
T4 sequence (Q15393 whole entry): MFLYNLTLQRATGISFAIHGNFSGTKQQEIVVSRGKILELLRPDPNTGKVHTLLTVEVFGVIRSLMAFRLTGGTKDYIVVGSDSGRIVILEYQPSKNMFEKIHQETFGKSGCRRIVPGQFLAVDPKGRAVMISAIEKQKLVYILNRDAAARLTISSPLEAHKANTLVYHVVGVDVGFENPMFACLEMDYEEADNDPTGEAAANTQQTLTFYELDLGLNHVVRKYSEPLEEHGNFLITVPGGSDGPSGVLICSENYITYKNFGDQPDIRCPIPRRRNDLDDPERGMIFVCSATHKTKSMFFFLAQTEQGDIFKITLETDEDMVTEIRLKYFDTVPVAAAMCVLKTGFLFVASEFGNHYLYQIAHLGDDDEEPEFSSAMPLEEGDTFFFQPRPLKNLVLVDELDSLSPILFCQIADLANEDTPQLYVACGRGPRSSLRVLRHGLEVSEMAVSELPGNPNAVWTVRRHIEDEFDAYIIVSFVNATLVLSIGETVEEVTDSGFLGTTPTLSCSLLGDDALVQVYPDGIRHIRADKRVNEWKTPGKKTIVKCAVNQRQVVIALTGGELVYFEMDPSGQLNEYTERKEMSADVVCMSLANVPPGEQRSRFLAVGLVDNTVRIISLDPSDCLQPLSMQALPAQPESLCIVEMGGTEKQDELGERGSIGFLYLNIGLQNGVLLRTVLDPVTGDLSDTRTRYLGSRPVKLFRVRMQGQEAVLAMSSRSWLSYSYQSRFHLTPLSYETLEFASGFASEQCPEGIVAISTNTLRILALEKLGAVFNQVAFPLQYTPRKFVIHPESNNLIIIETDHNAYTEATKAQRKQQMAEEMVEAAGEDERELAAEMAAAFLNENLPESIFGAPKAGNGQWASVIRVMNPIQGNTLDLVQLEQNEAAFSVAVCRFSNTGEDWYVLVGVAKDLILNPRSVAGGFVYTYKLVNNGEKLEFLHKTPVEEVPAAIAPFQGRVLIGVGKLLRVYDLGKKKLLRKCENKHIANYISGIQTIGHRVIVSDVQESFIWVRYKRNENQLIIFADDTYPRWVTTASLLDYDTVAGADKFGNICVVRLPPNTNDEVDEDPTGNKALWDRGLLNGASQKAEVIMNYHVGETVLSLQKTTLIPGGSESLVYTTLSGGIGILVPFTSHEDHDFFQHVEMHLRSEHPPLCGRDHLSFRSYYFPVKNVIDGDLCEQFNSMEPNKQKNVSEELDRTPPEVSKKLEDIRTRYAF

[5] = biological target: T5, HeLa cell extract proteins (Homo sapiens, UniProt Q9Y490)
T5 construct: endogenous in cells; host or cells: HeLa cell extract

[6] = biological target: T6, HeLa cell extract proteins (Homo sapiens, UniProt Q9NWZ8)
T6 construct: endogenous in cells; host or cells: HeLa cell extract
T6 sequence (Q9NWZ8 1-242): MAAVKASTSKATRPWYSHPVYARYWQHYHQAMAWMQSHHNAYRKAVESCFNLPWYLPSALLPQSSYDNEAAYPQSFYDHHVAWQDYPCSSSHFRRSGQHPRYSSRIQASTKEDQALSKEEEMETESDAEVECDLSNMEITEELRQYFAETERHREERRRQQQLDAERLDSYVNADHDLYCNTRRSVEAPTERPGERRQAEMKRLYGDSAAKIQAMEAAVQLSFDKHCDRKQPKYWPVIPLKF

[7] = biological target: T7, HeLa cell extract proteins (Homo sapiens, UniProt Q5XKP0); settings: captured protein C19ORF70; HeLa
T7 construct: endogenous in cells; host or cells: HeLa cell extract
T7 sequence (Q5XKP0 1-118): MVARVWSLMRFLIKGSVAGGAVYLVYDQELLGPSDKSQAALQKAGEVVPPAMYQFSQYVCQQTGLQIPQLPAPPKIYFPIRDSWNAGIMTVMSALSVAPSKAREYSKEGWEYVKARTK

[8] = biological target: T8, HeLa cell extract proteins (Homo sapiens, UniProt P48729); settings: protein CSNK1A1; HeLa
T8 construct: endogenous in cells; host or cells: HeLa cell extract
T8 sequence (P48729 whole entry): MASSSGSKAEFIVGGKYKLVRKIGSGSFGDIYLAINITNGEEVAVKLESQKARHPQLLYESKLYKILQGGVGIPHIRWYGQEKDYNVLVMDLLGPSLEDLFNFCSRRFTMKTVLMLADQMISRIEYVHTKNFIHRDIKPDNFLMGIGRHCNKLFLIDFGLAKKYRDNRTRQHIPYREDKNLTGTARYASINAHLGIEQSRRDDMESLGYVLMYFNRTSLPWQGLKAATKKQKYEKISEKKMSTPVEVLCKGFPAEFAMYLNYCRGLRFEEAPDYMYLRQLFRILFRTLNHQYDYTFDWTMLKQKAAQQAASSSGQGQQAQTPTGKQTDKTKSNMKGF

[9] = biological target: T9, HeLa cell extract proteins (Homo sapiens, UniProt O95347); settings: protein SMC2; HeLa
T9 construct: endogenous in cells; host or cells: HeLa cell extract
T9 sequence (O95347 whole entry): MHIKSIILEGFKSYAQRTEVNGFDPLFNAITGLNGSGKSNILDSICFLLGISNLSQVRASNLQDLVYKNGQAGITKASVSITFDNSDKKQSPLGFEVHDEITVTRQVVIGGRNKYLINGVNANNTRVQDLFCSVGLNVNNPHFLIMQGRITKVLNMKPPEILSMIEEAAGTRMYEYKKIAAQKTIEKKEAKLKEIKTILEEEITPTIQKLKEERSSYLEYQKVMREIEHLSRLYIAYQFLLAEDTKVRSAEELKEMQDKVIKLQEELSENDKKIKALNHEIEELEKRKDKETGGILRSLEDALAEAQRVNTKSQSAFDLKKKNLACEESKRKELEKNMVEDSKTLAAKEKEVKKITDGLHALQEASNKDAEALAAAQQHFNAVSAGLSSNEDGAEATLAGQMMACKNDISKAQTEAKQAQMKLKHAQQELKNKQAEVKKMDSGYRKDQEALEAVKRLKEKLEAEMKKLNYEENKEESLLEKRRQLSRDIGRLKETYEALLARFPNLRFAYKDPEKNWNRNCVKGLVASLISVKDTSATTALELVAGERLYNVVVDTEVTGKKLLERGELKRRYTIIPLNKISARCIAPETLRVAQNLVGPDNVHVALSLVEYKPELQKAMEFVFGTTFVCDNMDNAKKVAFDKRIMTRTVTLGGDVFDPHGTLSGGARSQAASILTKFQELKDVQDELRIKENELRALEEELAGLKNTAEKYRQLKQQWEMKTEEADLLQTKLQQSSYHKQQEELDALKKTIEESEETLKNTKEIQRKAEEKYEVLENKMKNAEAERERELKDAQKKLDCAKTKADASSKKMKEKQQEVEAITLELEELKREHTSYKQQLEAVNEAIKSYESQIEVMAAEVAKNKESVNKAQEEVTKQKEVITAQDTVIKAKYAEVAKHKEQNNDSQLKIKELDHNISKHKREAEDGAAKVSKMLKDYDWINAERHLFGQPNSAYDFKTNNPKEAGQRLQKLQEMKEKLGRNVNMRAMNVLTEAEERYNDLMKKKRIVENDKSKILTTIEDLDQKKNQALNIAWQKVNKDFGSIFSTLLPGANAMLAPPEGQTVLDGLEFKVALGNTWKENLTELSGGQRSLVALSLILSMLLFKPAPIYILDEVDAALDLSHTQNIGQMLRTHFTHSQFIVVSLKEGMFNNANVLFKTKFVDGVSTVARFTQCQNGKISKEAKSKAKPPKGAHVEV

[10] = biological target: T10, HeLa cell extract proteins (Homo sapiens, UniProt O75600); settings: protein GCAT; HeLa
T10 construct: endogenous in cells; host or cells: HeLa cell extract
T10 sequence (O75600 22-419): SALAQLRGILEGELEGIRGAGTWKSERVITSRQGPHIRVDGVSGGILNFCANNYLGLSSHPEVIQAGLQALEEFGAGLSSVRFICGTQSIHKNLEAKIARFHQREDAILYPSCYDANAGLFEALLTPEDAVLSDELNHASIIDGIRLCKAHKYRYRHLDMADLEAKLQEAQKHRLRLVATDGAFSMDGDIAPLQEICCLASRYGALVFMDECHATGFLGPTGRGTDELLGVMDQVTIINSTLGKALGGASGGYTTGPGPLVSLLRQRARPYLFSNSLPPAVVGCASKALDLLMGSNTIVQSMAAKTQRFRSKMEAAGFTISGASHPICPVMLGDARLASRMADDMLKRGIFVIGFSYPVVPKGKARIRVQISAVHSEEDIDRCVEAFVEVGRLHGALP

[11] = biological target: T11, HeLa cell extract proteins (Homo sapiens, UniProt Q06323); settings: HeLa; protein PSME1
T11 construct: endogenous in cells; host or cells: HeLa cell extract
T11 sequence (Q06323 whole entry): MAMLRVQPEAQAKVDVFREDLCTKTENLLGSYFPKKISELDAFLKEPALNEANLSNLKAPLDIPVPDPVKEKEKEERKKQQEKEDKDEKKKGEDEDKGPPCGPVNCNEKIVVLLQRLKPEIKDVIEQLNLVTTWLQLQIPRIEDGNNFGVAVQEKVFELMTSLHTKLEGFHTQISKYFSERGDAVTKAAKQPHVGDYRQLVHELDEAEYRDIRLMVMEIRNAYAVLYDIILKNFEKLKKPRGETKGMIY

[12] = HeLa, protein SAPS1 (SAPS1 PROTEIN)

| Structure (SMILES) | fold changes relative to vehicle control [1, 12] | fold changes relative to vehicle control ([2]; HeLa, captured protein ALDH1B1) | fold changes relative to vehicle control ([3]; HeLa, protein SCYE1) | fold changes relative to vehicle control ([4]; HeLa, protein SF3B3) | fold changes relative to vehicle control ([5]; protein TLN1, HeLa) | fold changes relative to vehicle control ([6]; HeLa, protein GEMIN8) | fold changes relative to vehicle control [7] | fold changes relative to vehicle control [8] | fold changes relative to vehicle control [9] | fold changes relative to vehicle control [10] | fold changes relative to vehicle control [11] | further results |
| --- | --- | --- | --- | --- | --- | --- | --- | --- | --- | --- | --- | --- |
| Nc1nc2c(c(=O)[nH]1)N(C=O)C(CNc1ccc(C(=O)N[C@@H](CCC(=O)O)C(=O)O)cc1)CN2 (stereo partly drawn) [LEU, leucovorin] | 1.01 | 1.03 | 0.85 | 1.09 | 0.67 | 0.97 |  |  |  |  |  |  |
| Nc1nc2[nH]cc(CCc3ccc(C(=O)N[C@@H](CCC(=O)O)C(=O)O)cc3)c2c(=O)[nH]1 [PTX, pemetrexed] |  |  |  |  |  |  |  |  |  |  |  | fold changes relative to vehicle control [1]: 1.49; fold changes relative to vehicle control [2]: 0.93; fold changes relative to vehicle control [3]: 0.91; fold changes relative to vehicle control [4]: 1.16; fold changes relative to vehicle control [5]: 1.01; fold changes relative to vehicle control [6]: 0.97 |
| CCCCCCOc1ccc(Cc2cnc(N)nc2N)cc1 [compound 1] |  |  |  |  |  |  | 1.16 | 0.93 | 1.4 | 0.95 | 0.97 |  |
| CCCCCCOc1cccc(Cc2cnc(N)nc2N)c1 [compound 2] |  |  |  |  |  |  | 1.14 | 1.17 | 1.36 | 1.14 | 1.35 |  |
| Nc1nc2cccc(-c3ccccc3)c2n1Cc1ccc(Cl)c(Cl)c1 [compound 3] |  |  |  |  |  |  | 1.13 | 1.06 | 1.11 | 1.03 | 1.04 |  |
| NCCOCCOCC(=O)Nc1nc2ncc(CNc3ccc(C(=O)NC(CCC(=O)O)C(=O)O)cc3)nc2c(=O)[nH]1 (stereo not drawn) [compound 6] | 1.29 | 1.06 | 0.99 | 1.18 | 0.72 | 0.8 |  |  |  |  |  |  |
| NCCCNc1ccc(C(=O)NC(CCC(=O)O)C(=O)O)cc1 (stereo not drawn) [compound 7] | 1.32 | 0.95 | 0.86 | 1.19 | 0.78 | 0.86 |  |  |  |  |  |  |
